# Source: ChEMBL document CHEMBL1201862, “PubChem BioAssay data set” (2004)
#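 1) Cells in 96-well plates. 2) Compound, 48 h, 5 concentrations. 3) Linear interpolation between surrounding doses. 4) Unreached endpoint = highest concentration. At the GI50, growth is halved.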 The source made the active and inactive calls. Cut-off read from the data, not from the text of the source: active = GI50 up to about 1.1 µM and inactive = higher.
# Tests used:
# Experiment in all cases: DTP human tumour cell line panel, 48 h
# SNB-19 = tested on: SNB-19
# MDA-MB-231 = tested on: MDA-MB-231
# HOP-62 = tested on: HOP-62
# SK-OV-3 = tested on: SK-OV-3
# OVCAR-4 = tested on: OVCAR-4
# OVCAR-5 = tested on: OVCAR-5
# HOP-92 = tested on: HOP-92
# NCI-H23 = tested on: NCI-H23
# RXF 393 = tested on: RXF 393
# MDA-N = tested on: MDA-N
# TK-10 = tested on: TK-10
# UACC-62 = tested on: UACC-62
# HCC 2998 = tested on: HCC 2998
# BT-549 = tested on: BT-549
# CAKI-1 = tested on: CAKI-1
# T47D = tested on: T47D
# OVCAR-8 = tested on: OVCAR-8
# COLO 205 = tested on: COLO 205
# CCRF-CEM = tested on: CCRF-CEM
# IGROV-1 = tested on: IGROV-1
# HL-60 = tested on: HL-60
# NCI-H460 = tested on: NCI-H460
# SK-MEL-5 = tested on: SK-MEL-5
# SNB-75 = tested on: SNB-75
# LOX IMVI = tested on: LOX IMVI
# NCI/ADR-RES = tested on: NCI/ADR-RES
# MCF7 = tested on: MCF7
# U-251 = tested on: U-251
# SF-295 = tested on: SF-295
# 786-0 = tested on: 786-0
# NCI-H226 = tested on: NCI-H226
# K562 = tested on: K562
# ACHN = tested on: ACHN
# MDA-MB-435 = tested on: MDA-MB-435
# EKVX = tested on: EKVX
# OVCAR-3 = tested on: OVCAR-3
# SK-MEL-2 = tested on: SK-MEL-2
# M14 = tested on: M14
# KM12 = tested on: KM12
# HT-29 = tested on: HT-29
# A498 = tested on: A498
# Malme-3M = tested on: Malme-3M
# UO-31 = tested on: UO-31
# SF-268 = tested on: SF-268
# SN12C = tested on: SN12C
# RPMI-8226 = tested on: RPMI-8226
# HCT-15 = tested on: HCT-15
# NCI-H522 = tested on: NCI-H522
# SR = tested on: SR
# Hs-578T = tested on: Hs-578T
# SW-620 = tested on: SW-620
# PC-3 = tested on: PC-3
# SK-MEL-28 = tested on: SK-MEL-28
# SF-539 = tested on: SF-539
# UACC-257 = tested on: UACC-257
# DU-145 = tested on: DU-145
# HCT-116 = tested on: HCT-116
# A549 = tested on: A549
# MOLT-4 = tested on: MOLT-4
smiles,measurement,setting,value
COc1ccc(C(=O)/C=C/c2cc(O)c(O)c(F)c2F)c(OC)c1,GI50,SNB-19,27.2 µM (inactive)
same,GI50,MDA-MB-231,18.8 µM (inactive)
same,GI50,HOP-62,26.5 µM (inactive)
same,GI50,SK-OV-3,21.5 µM (inactive)
same,GI50,OVCAR-4,19 µM (inactive)
same,GI50,OVCAR-5,35 µM (inactive)
same,GI50,HOP-92,46.7 µM (inactive)
same,GI50,NCI-H23,13.8 µM (inactive)
same,GI50,RXF 393,18.2 µM (inactive)
same,GI50,MDA-N,12.7 µM (inactive)
same,GI50,TK-10,22.5 µM (inactive)
same,GI50,UACC-62,15.1 µM (inactive)
same,GI50,HCC 2998,4.75 µM (inactive)
same,GI50,BT-549,19.2 µM (inactive)
same,GI50,CAKI-1,25.6 µM (inactive)
same,GI50,T47D,15.2 µM (inactive)
same,GI50,OVCAR-8,20.8 µM (inactive)
same,GI50,COLO 205,15.6 µM (inactive)
same,GI50,CCRF-CEM,3.92 µM (inactive)
same,GI50,IGROV-1,19.8 µM (inactive)
same,GI50,HL-60,4.22 µM (inactive)
same,GI50,NCI-H460,4.45 µM (inactive)
same,GI50,SK-MEL-5,11.5 µM (inactive)
same,GI50,SNB-75,22.4 µM (inactive)
same,GI50,LOX IMVI,13.6 µM (inactive)
same,GI50,NCI/ADR-RES,10.1 µM (inactive)
same,GI50,MCF7,3.22 µM (inactive)
same,GI50,U-251,11.1 µM (inactive)
same,GI50,SF-295,18.5 µM (inactive)
same,GI50,786-0,8 µM (inactive)
same,GI50,NCI-H226,21.5 µM (inactive)
same,GI50,K562,17.9 µM (inactive)
same,GI50,ACHN,20.8 µM (inactive)
same,GI50,MDA-MB-435,17.9 µM (inactive)
same,GI50,EKVX,25 µM (inactive)
same,GI50,OVCAR-3,5.48 µM (inactive)
same,GI50,SK-MEL-2,14.4 µM (inactive)
same,GI50,M14,22.8 µM (inactive)
same,GI50,KM12,11.4 µM (inactive)
same,GI50,HT-29,4.67 µM (inactive)
same,GI50,A498,20.1 µM (inactive)
same,GI50,Malme-3M,15.5 µM (inactive)
same,GI50,UO-31,35.2 µM (inactive)
same,GI50,SF-268,18.6 µM (inactive)
same,GI50,SN12C,10.3 µM (inactive)
same,GI50,RPMI-8226,8.83 µM (inactive)
same,GI50,HCT-15,4.99 µM
same,GI50,NCI-H522,11.2 µM (inactive)
same,GI50,SR,4.24 µM (inactive)
same,GI50,Hs-578T,61.4 µM (inactive)
same,GI50,SW-620,15.4 µM (inactive)
same,GI50,PC-3,12.3 µM (inactive)
same,GI50,SK-MEL-28,30 µM (inactive)
same,GI50,SF-539,16.7 µM (inactive)
same,GI50,UACC-257,15.9 µM (inactive)
same,GI50,DU-145,23.9 µM (inactive)
same,GI50,HCT-116,6.95 µM (inactive)
same,GI50,A549,16.1 µM (inactive)
C#C[C@]1(O)CC[C@H]2[C@@H]3CCc4cc(OC(=O)c5cccc6cc7ccccc7nc56)ccc4[C@H]3CC[C@@]21C,GI50,SNB-19,50.7 µM (inactive)
same,GI50,MDA-MB-231,25.6 µM (inactive)
same,GI50,HOP-62,38.2 µM (inactive)
same,GI50,SK-OV-3,62.1 µM (inactive)
same,GI50,OVCAR-4,38.4 µM (inactive)
same,GI50,OVCAR-5,43.8 µM (inactive)
same,GI50,HOP-92,66.5 µM (inactive)
same,GI50,NCI-H23,40.3 µM (inactive)
same,GI50,MOLT-4,6.98 µM (inactive)
same,GI50,RXF 393,44.4 µM (inactive)
same,GI50,MDA-N,25.5 µM (inactive)
same,GI50,UACC-62,28.5 µM (inactive)
same,GI50,HCC 2998,29.4 µM (inactive)
same,GI50,BT-549,74 µM (inactive)
same,GI50,CAKI-1,23 µM (inactive)
same,GI50,T47D,13.9 µM (inactive)
same,GI50,OVCAR-8,40.8 µM (inactive)
same,GI50,COLO 205,11 µM (inactive)
same,GI50,CCRF-CEM,12.8 µM (inactive)
same,GI50,IGROV-1,14.6 µM (inactive)
same,GI50,HL-60,8.75 µM (inactive)
same,GI50,NCI-H460,23 µM (inactive)
same,GI50,SK-MEL-5,13.6 µM (inactive)
same,GI50,SNB-75,31.2 µM (inactive)
same,GI50,LOX IMVI,20.5 µM (inactive)
same,GI50,NCI/ADR-RES,28.8 µM (inactive)
same,GI50,MCF7,25.2 µM (inactive)
same,GI50,U-251,24 µM (inactive)
same,GI50,786-0,27.5 µM (inactive)
same,GI50,NCI-H226,33.2 µM (inactive)
same,GI50,K562,> 100 µM (inactive)
same,GI50,ACHN,49 µM (inactive)
same,GI50,MDA-MB-435,31.2 µM (inactive)
same,GI50,EKVX,12.9 µM (inactive)
same,GI50,OVCAR-3,21.4 µM (inactive)
same,GI50,SK-MEL-2,29.2 µM (inactive)
same,GI50,M14,31 µM (inactive)
same,GI50,KM12,20 µM (inactive)
same,GI50,HT-29,33.9 µM (inactive)
same,GI50,A498,> 100 µM (inactive)
same,GI50,Malme-3M,6.44 µM (inactive)
same,GI50,SF-268,67.5 µM (inactive)
same,GI50,SN12C,20.9 µM (inactive)
same,GI50,RPMI-8226,22 µM (inactive)
same,GI50,HCT-15,26.1 µM
same,GI50,NCI-H522,15.5 µM (inactive)
same,GI50,SR,5.52 µM (inactive)
same,GI50,Hs-578T,25.6 µM (inactive)
same,GI50,SW-620,29.7 µM (inactive)
same,GI50,PC-3,35.9 µM (inactive)
same,GI50,SK-MEL-28,35.9 µM (inactive)
same,GI50,SF-539,31.6 µM (inactive)
same,GI50,UACC-257,63.4 µM (inactive)
same,GI50,DU-145,23.5 µM (inactive)
same,GI50,HCT-116,24.3 µM (inactive)
same,GI50,A549,34 µM (inactive)
O=C1C(SCCO)=C(SCCO)C(=O)c2ccccc21,GI50,SNB-19,1.78 µM (inactive)
same,GI50,MDA-MB-231,1.48 µM (inactive)
same,GI50,HOP-62,1.85 µM (inactive)
same,GI50,SK-OV-3,1.66 µM (inactive)
same,GI50,OVCAR-4,0.252 µM (active)
same,GI50,OVCAR-5,1.16 µM (inactive)
same,GI50,HOP-92,0.805 µM (active)
same,GI50,NCI-H23,0.518 µM (active)
same,GI50,MOLT-4,0.0794 µM (active)
same,GI50,RXF 393,1.33 µM (inactive)
same,GI50,MDA-N,0.167 µM (active)
same,GI50,TK-10,1.62 µM (inactive)
same,GI50,UACC-62,1.44 µM (inactive)
same,GI50,HCC 2998,1.74 µM (inactive)
same,GI50,BT-549,1.43 µM (inactive)
same,GI50,CAKI-1,2.08 µM (inactive)
same,GI50,T47D,1.22 µM (inactive)
same,GI50,OVCAR-8,0.579 µM (active)
same,GI50,COLO 205,1.77 µM (inactive)
same,GI50,CCRF-CEM,0.916 µM (active)
same,GI50,IGROV-1,0.467 µM (active)
same,GI50,HL-60,1.17 µM (inactive)
same,GI50,NCI-H460,1.77 µM (inactive)
same,GI50,SK-MEL-5,0.238 µM (active)
same,GI50,SNB-75,1.29 µM (inactive)
same,GI50,LOX IMVI,0.222 µM (active)
same,GI50,NCI/ADR-RES,0.94 µM (active)
same,GI50,MCF7,0.791 µM (active)
same,GI50,U-251,0.711 µM (active)
same,GI50,SF-295,1.48 µM (inactive)
same,GI50,786-0,2.04 µM (inactive)
same,GI50,NCI-H226,1.71 µM (inactive)
same,GI50,K562,1.67 µM (inactive)
same,GI50,ACHN,0.807 µM (active)
same,GI50,MDA-MB-435,0.186 µM (active)
same,GI50,EKVX,1.6 µM (inactive)
same,GI50,OVCAR-3,0.986 µM (active)
same,GI50,SK-MEL-2,2 µM (inactive)
same,GI50,M14,0.815 µM (active)
same,GI50,KM12,1.75 µM (inactive)
same,GI50,HT-29,2.16 µM (inactive)
same,GI50,A498,0.59 µM (active)
same,GI50,Malme-3M,1.1 µM (active)
same,GI50,UO-31,1.08 µM (active)
same,GI50,SF-268,1.56 µM (inactive)
same,GI50,SN12C,1.6 µM (inactive)
same,GI50,RPMI-8226,0.865 µM (active)
same,GI50,HCT-15,1.39 µM
same,GI50,NCI-H522,1.86 µM (inactive)
same,GI50,SR,1.51 µM (inactive)
same,GI50,Hs-578T,1.17 µM (inactive)
same,GI50,SW-620,0.695 µM (active)
same,GI50,PC-3,2.1 µM (inactive)
same,GI50,SK-MEL-28,1.67 µM (inactive)
same,GI50,SF-539,0.745 µM (active)
same,GI50,UACC-257,1.29 µM (inactive)
same,GI50,DU-145,2.05 µM (inactive)
same,GI50,HCT-116,1.86 µM (inactive)
same,GI50,A549,1.29 µM (inactive)
